Among the data in ChEMBL document CHEMBL4382281, “ASK1: A Therapeutic Target for the Treatment of Multiple Diseases” (ACS Med Chem Lett, 2019) are IC50 values, retold here.

A value given as a limit tells only on which side of the number the result lay.

Assay [1] has as its target T1, Mitogen-activated protein kinase kinase kinase 5 (Homo sapiens, UniProt Q99683).
T1 sequence (Q99683 whole entry): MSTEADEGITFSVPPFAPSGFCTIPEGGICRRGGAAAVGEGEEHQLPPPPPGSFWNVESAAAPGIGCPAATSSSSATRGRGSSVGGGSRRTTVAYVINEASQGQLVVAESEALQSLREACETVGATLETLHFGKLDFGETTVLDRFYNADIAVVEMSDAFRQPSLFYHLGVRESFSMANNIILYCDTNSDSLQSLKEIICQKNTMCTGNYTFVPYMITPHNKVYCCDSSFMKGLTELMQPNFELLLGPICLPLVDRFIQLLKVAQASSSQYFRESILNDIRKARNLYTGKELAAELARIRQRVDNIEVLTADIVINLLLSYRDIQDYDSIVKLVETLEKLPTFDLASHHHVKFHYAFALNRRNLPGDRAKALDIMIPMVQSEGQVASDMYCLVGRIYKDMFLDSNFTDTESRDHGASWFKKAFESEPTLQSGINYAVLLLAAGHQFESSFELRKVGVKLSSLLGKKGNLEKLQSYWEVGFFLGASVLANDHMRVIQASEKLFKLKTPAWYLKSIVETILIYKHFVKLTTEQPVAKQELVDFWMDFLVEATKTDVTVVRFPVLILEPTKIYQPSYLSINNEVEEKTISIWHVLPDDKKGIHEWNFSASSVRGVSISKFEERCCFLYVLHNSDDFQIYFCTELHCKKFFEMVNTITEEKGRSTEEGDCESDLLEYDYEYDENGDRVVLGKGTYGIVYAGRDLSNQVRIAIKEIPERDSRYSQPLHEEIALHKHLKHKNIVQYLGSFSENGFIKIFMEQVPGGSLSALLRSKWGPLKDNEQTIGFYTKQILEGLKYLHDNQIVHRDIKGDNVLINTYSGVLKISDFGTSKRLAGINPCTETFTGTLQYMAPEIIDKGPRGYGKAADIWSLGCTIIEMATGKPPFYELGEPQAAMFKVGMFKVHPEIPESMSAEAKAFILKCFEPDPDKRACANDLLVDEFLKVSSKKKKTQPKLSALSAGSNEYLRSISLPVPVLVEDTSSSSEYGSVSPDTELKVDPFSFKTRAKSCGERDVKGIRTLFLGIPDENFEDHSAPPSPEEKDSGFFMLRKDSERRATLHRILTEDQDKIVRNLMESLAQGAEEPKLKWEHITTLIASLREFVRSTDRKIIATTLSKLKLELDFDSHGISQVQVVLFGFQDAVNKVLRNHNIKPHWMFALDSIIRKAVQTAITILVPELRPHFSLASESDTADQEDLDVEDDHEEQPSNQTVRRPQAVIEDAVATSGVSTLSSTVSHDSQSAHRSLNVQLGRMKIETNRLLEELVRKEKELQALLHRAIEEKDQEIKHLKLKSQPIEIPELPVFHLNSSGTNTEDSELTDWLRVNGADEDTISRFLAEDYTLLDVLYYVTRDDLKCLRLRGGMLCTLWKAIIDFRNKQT
The experiment in a line: Inhibition of recombinant V5-tagged ASK1 (unknown origin) expressed in HEK293 cells assessed as reduction in ASK1 autophosphorylation at T838 residue after 1 hr by MSD assay. The assay is classed as cell-based.

Assay [2] concerns the target T1, Mitogen-activated protein kinase kinase kinase 5. The experiment in a line: Inhibition of full-length human GST-tagged ASK1 expressed in baculovirus expression system using biotinylated STK Substrate 3 preincubated for 10 mins followed by ATP addition and measured after 5 hrs by TR-FRET assay. In general terms: In TR-FRET formats the signal depends on donor and acceptor labels being close together.

Assay [3] has the same target. The experiment in a line: Inhibition of human ASK1 using MBP as substrate measured in presence of [gamma-33P]-ATP.

In the case of `Cc1ccc2c(c1)C(=O)Nc1cccc(n1)-c1nncn1CCCCO2`, the IC50 (as a rule, the point on the concentration scale where inhibition reaches its midpoint) in assay [1] was not above 1 µM; in assay [2], not above 0.1 µM; in assay [3], not above 0.1 µM.

Take `O=C1Nc2cccc(n2)-c2nncn2C/C=C/COc2c(Br)cccc21`: the IC50 is more than 10 µM in assay [1] and 0.1 to 1 µM in assay [2].

With `Cc1ncn(-c2ccc3c(c2)C(=O)Nc2cccc(n2)-c2nncn2CCCCO3)c1C`, the IC50 in assay [1] was not above 1 µM; in assay [2], not above 0.1 µM; in assay [3], not above 0.1 µM.
